What was measured:
[1] = tested on: mouse B16-F10 melanoma cultured cells; assay: Hematogenous pulmonary metastasis after transplantation of mouse B16-F10 melanoma cultured cells into tail vein; format: in vivo; settings: for CI (Combination Index): Median Effect Analysis, CI below 1 = synergistic
Procedure: • (1) Preparation of mouse B16-F10 melanoma cultured cells (hereinafter simply B16-F10) B16-F10 cells (a permission to use was obtained from US M.D. Anderson Cancer Center, Dr. I. Fidler and provided for use from Japanese Foundation for cancer research·cancer chemotherapy center, Dr. […] For experiment, B16-F10 cells were suspended in MEM at 5×10^5 cells/mL and 0.2 mL thereof was transferred into the tail vein of 8-week-old male C57BL/6 mice (8 per group). […] Alzet, model 1002, flow rate […], for use for 14 days), and the osmotic pump was intraperitoneally transplanted into the mice one day before the transplantation of B16-F10 cells. • (3) As regards cisplatin, a preparation for injection (product name: Randa injection) was diluted with physiological saline and intraperitoneally administered once the day after transplantation of B16-F10 cells. As regards etoposide, a preparation for injection (product name: […] injection) was diluted with physiological saline and repeatedly administered intraperitoneally once a day for 5 days starting from one day after transplantation of B16-F10 cells. Paclitaxel was purchased from Sigma chemicals Co., suspended in 0.5% metolose solution and repeatedly administered intraperitoneally once every other day (3 times/week for 2 weeks) starting from one day after transplantation of B16-F10 cells. […] In addition, the values of combination index (CI) of the action in concomitant use analyzed by Median Effect Analysis (References and [2]) with regard to the combination group of the compound of the present invention and the anticancer agent are summarized in Table 3 and Table 6.

[2] = tested on: Mouse melanoma B16-F10 cells; assay: Measurement of cell growth activity (MTT), in vitro growth of B16-F10 cells; format: cell-based; settings: for CI (Combination Index): median effect analysis; for average growth suppression rate ± standard error: MTT
Procedure: Mouse melanoma B16-F10 cells (the aforementioned) were cultured in MEM supplemented with 2 mM L-glutamine, 1 mM MEM non-essential amino acids, 1% MEM vitamins, 1 mM pyruvic acid and 5% FCS, and the cells were scraped off from the culture flask every 3-4 days with a cell scraper (No. 3010, manufactured by Coaster), diluted 10-fold and maintained by subculture. In the experiment examining the effect of the test substance on the cell growth, the B16-F10 cells maintained in vitro by subculture were recovered with a cell scraper, suspended in MEM supplemented with 10% FCS at 2×10^5 cells/mL and added to a 96 well microtest plate (Becton Dickinson) at 1×10^4 cells/50 μL/well. Furthermore, 50 μL of a test substance at a 2-fold concentration of the final concentration was added to the well, and cultured in a CO2 incubator (MCO-175, SANYO Electric Co., Ltd.) at 37° C., 5% CO2 95% air for 72 hr.
After culture, 10 mg/mL of MTT [(3-[4,5-Dimethylthiazol-2-yl]-2,5-diphenyl-tetrazolium bromide)] was added at 10 μL/well, which was followed by culture for 3 hr. Thereafter, 100 μL of 10% SDS (sodium dodecylsulfate)—0.01N HCl was added to dissolve the pigment and absorbance at 570 nm was measured with a multilabel counter (1420 ARVO SX, Pharmacia Biotech Corporation). According to the concentration of the test substance, each well was expressed by absorbance, and average value and standard error. Using the well, to which the medium alone was added, as a control, the growth inhibition rate was calculated according to the following formula. [formula] Analysis method: Based on the dose reaction curves of the inventive compound alone treatment group and cisplatin alone treatment group, the combination index (CI) of the action in concomitant use is calculated by median effect analysis (References and [2]). (Results)

## C[C@@H](N)c1ccc(C(=O)Nc2ccncc2)cc1.Cl [compound of the present invention, (R)-(+)-N-(4-pyridyl)-4-(1-aminoethyl)benzamide HCl]
[1]; Table 1, compound 1 mg/kg oral administration once a day for 14 days, alone
  T/C±standard error (average number of pulmonary metastatic colonies of administration group/control group ×100): 77.1 ± 10.0%
[1]; Table 1, compound 1 mg/kg oral once a day for 14 days in combination with cisplatin 5 mg/kg intraperitoneally once
  T/C±standard error (average number of pulmonary metastatic colonies of administration group/control group ×100): 13.4 ± 1.4%
[1]; Table 1, compound 1 mg/kg oral once a day for 14 days in combination with cisplatin 10 mg/kg intraperitoneally once, p < 0.01 vs. cisplatin (10 mg/kg) alone
  T/C±standard error (average number of pulmonary metastatic colonies of administration group/control group ×100): 19.5 ± 3.0%
[1]; Table 1, compound 3 mg/kg oral administration once a day for 14 days, alone
  T/C±standard error (average number of pulmonary metastatic colonies of administration group/control group ×100): 65.2 ± 3.7%
[1]; Table 1, compound 3 mg/kg oral once a day for 14 days in combination with cisplatin 5 mg/kg intraperitoneally once
  T/C±standard error (average number of pulmonary metastatic colonies of administration group/control group ×100): 14.4 ± 2.0%
[1]; Table 1, compound 3 mg/kg oral once a day for 14 days in combination with cisplatin 10 mg/kg intraperitoneally once, p < 0.01 vs. cisplatin (10 mg/kg) alone
  T/C±standard error (average number of pulmonary metastatic colonies of administration group/control group ×100): 16.5 ± 1.4%
[1]; Table 2, compound 0.3 mg/kg by intraperitoneal osmotic pump (14 days), alone
  T/C±standard error (average number of pulmonary metastatic colonies of administration group/control group ×100): 73.4 ± 10.1%
[1]; Table 2, compound 0.3 mg/kg by osmotic pump in combination with cisplatin 10 mg/kg intraperitoneally once
  T/C±standard error (average number of pulmonary metastatic colonies of administration group/control group ×100): 12.1 ± 2.1%
[1]; Table 2, compound 1 mg/kg by intraperitoneal osmotic pump (14 days), alone
  T/C±standard error (average number of pulmonary metastatic colonies of administration group/control group ×100): 69.9 ± 7.7%
[1]; Table 2, compound 1 mg/kg by osmotic pump in combination with cisplatin 10 mg/kg intraperitoneally once
  T/C±standard error (average number of pulmonary metastatic colonies of administration group/control group ×100): 13.0 ± 1.8%
[1]; Table 2, compound 3 mg/kg by intraperitoneal osmotic pump (14 days), alone
  T/C±standard error (average number of pulmonary metastatic colonies of administration group/control group ×100): 63.5 ± 7.7%
[1]; Table 2, compound 3 mg/kg by osmotic pump in combination with cisplatin 10 mg/kg intraperitoneally once, P < 0.05 vs. cisplatin (10 mg/kg) alone
  T/C±standard error (average number of pulmonary metastatic colonies of administration group/control group ×100): 11.1 ± 1.4%
[1]; Table 4, compound 1 mg/kg oral administration once a day for 14 days, alone
  T/C±standard error (average number of pulmonary metastatic colonies of administration group/control group ×100): 83.4 ± 10.8%
[1]; Table 4, compound 1 mg/kg oral in combination with etoposide 5 mg/kg intraperitoneally once a day for 5 days, P < 0.05 vs. etoposide (5 mg/kg) alone
  T/C±standard error (average number of pulmonary metastatic colonies of administration group/control group ×100): 22.0 ± 4.8%
[1]; Table 4, compound 3 mg/kg oral administration once a day for 14 days, alone
  T/C±standard error (average number of pulmonary metastatic colonies of administration group/control group ×100): 70.5 ± 4.0%
[1]; Table 4, compound 3 mg/kg oral in combination with etoposide 5 mg/kg intraperitoneally once a day for 5 days, P < 0.01 vs. etoposide (5 mg/kg) alone
  T/C±standard error (average number of pulmonary metastatic colonies of administration group/control group ×100): 19.2 ± 2.8%
[1]; Table 5, compound 1 mg/kg oral administration once a day for 14 days, alone
  T/C±standard error (average number of pulmonary metastatic colonies of administration group/control group ×100): 69.8 ± 9.0%
[1]; Table 5, compound 1 mg/kg oral in combination with paclitaxel 5 mg/kg intraperitoneally once every other day, P < 0.05 vs. paclitaxel (5 mg/kg) alone
  T/C±standard error (average number of pulmonary metastatic colonies of administration group/control group ×100): 20.6 ± 2.6%
[1]; Table 5, compound 3 mg/kg oral administration once a day for 14 days, alone
  T/C±standard error (average number of pulmonary metastatic colonies of administration group/control group ×100): 59.0 ± 3.3%
[1]; Table 5, compound 3 mg/kg oral in combination with paclitaxel 5 mg/kg intraperitoneally once every other day, P < 0.01 vs. paclitaxel (5 mg/kg) alone
  T/C±standard error (average number of pulmonary metastatic colonies of administration group/control group ×100): 16.3 ± 3.0%
[1]; combination group with cisplatin as compared to the cisplatin alone administration group (p<0.01 or p<0.05, Dunnett's test)
  number of pulmonary metastatic colonies of B16-F10 cells: significantly decreased
[1]; combination group with etoposide as compared to the etoposide alone administration group (p<0.01 or p<0.05 Dunnett's test)
  number of pulmonary metastatic colonies of B16-F10 cells: significantly decreased
[1]; combination group with paclitaxel as compared to the paclitaxel alone administration group (p<0.01 or p<0.05 Dunnett's test)
  number of pulmonary metastatic colonies of B16-F10 cells: significantly decreased
[1]; compound 0.3 mg/kg osmotic pump + cisplatin 10 mg/kg
  CI (Combination Index): 0.19
[1]; compound 1 mg/kg oral + Etoposide (5 mg/kg)
  CI (Combination Index): 0.42
[1]; compound 1 mg/kg oral + Paclitaxel (5 mg/kg)
  CI (Combination Index): 0.63
[1]; compound 1 mg/kg oral administration + cisplatin 10 mg/kg
  CI (Combination Index): 0.12
[1]; compound 1 mg/kg osmotic pump + cisplatin 10 mg/kg
  CI (Combination Index): 0.21
[1]; compound 3 mg/kg oral + Etoposide (5 mg/kg)
  CI (Combination Index): 0.34
[1]; compound 3 mg/kg oral + Paclitaxel (5 mg/kg)
  CI (Combination Index): 0.34
[1]; compound 3 mg/kg oral administration + cisplatin 10 mg/kg
  CI (Combination Index): 0.09
[1]; compound 3 mg/kg osmotic pump + cisplatin 10 mg/kg
  CI (Combination Index): 0.17
[1]; compound and cisplatin used in combination, every dose (Table 3)
  CI value of the action in concomitant use: lower than 1
[1]; compound and etoposide used in combination (Table 6)
  combination index of the action in concomitant use: lower than 1
[1]; compound and paclitaxel used in combination (Table 6)
  combination index of the action in concomitant use: lower than 1
[2]; compound 0.3 μM + cisplatin 10 μM
  CI (Combination Index): 0.4293
[2]; compound 1 μM + cisplatin 10 μM
  CI (Combination Index): 0.4656
[2]; compound 3 μM + cisplatin 10 μM
  CI (Combination Index): 0.4478
[2]; compound 10 μM + cisplatin 10 μM
  CI (Combination Index): 0.4403
[2]; compound 30 μM + cisplatin 10 μM
  CI (Combination Index): 0.5071
[2]; compound 100 μM + cisplatin 10 μM
  CI (Combination Index): 0.3558
[2]; compound 0.1 (no unit in Table 7; μM in Table 8) alone, 72 hr culture
  average growth suppression rate ± standard error: 4.389 ± 3.094%
[2]; compound 0.3 (no unit in Table 7; μM in Table 8) alone, 72 hr culture
  average growth suppression rate ± standard error: 5.196 ± 0.214%
[2]; compound 0.3 in combination with cisplatin 10 μM, 72 hr, NS (p = 0.1293) vs. cisplatin (10 μM) alone
  average growth suppression rate ± standard error: 17.200 ± 11.245%
[2]; compound 1 (no unit in Table 7; μM in Table 8) alone, 72 hr culture
  average growth suppression rate ± standard error: 7.877 ± 0.727%
[2]; compound 1 in combination with cisplatin 10 μM, 72 hr, NS (P = 0.1236) vs. cisplatin (10 μM) alone
  average growth suppression rate ± standard error: 17.319 ± 4.397%
[2]; compound 3 (no unit in Table 7; μM in Table 8) alone, 72 hr culture
  average growth suppression rate ± standard error: 10.012 ± 1.459%
[2]; compound 3 in combination with cisplatin 10 μM, 72 hr, p = 0.0028 vs. cisplatin (10 μM) alone
  average growth suppression rate ± standard error: 26.406 ± 8.364%
[2]; compound 10 (no unit in Table 7; μM in Table 8) alone, 72 hr culture
  average growth suppression rate ± standard error: 10.700 ± 0.365%
[2]; compound 10 in combination with cisplatin 10 μM, 72 hr, p = 0.0000 vs. cisplatin (10 μM) alone
  average growth suppression rate ± standard error: 43.796 ± 5.446%
[2]; compound 30 (no unit in Table 7; μM in Table 8) alone, 72 hr culture
  average growth suppression rate ± standard error: 22.657 ± 4.784%
[2]; compound 30 in combination with cisplatin 10 μM, 72 hr, p = 0.0000 vs. cisplatin (10 μM) alone
  average growth suppression rate ± standard error: 90.320 ± 2.220%
[2]; compound 100 (no unit in Table 7; μM in Table 8) alone, 72 hr culture
  average growth suppression rate ± standard error: 57.960 ± 8.575%
[2]; compound 100 in combination with cisplatin 10 μM, 72 hr, p = 0.0000 vs. cisplatin (10 μM) alone
  average growth suppression rate ± standard error: 96.180 ± 0.164%

— US6930115B2, “Antitumor effect potentiators” (Mitsubishi Pharma Corporation, priority 2000, dated 2005)
